The text below walks through data of patent US20100273814A1, “((PHENYL)IMIDAZOLYL)METHYLHETEROARYL COMPOUNDS” (priority 2007, published 2010).

SMILES strings stand for the structures. Bounds are passed on as bounds.

As a reminder, the EC50 is the midpoint of the concentration-response curve.

Assay type in all cases: cell-based
One assay addresses T1, alpha2C receptor (Homo sapiens, UniProt P18825).
T1 construct: expressed in transfected cells; host or cells: NIH-3T3 cells
T1 sequence (P18825 1-462): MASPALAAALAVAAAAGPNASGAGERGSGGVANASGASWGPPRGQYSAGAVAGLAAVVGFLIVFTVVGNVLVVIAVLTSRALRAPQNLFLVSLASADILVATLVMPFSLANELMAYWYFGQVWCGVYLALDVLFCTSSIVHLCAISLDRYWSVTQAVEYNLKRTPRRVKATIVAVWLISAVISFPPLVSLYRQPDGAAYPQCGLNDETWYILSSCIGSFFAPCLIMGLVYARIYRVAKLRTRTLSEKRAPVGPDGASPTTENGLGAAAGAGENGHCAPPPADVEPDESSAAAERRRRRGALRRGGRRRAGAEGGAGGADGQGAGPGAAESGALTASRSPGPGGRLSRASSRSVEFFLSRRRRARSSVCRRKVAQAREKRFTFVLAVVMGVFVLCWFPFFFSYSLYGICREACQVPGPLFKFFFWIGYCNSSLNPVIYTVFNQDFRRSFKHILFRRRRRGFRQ
In words: Receptor Selection and Amplification Technology (RSAT) assay, alpha2C. The following applies: RSAT; for EC50: transfected NIH-3T3 cells, value outside brackets, read-out: Alpha 2C EC50 (potency); for Alpha 2C intrinsic activity (efficacy): ratio of maximal effect to that of standard full agonist brimonidine (UK14304), value in brackets. The protocol:
(§1) Receptor Selection and Amplification Technology (RSAT) Assay
(§2) The RSAT assay measures a receptor-mediated loss of contact inhibition that results in selective proliferation of receptor-containing cells in a mixed population of confluent cells. The increase in cell number is assessed with an appropriate transfected marker gene such as β-galactosidase, the activity of which can be easily measured in a 96-well format. Receptors that activate the G protein, Gq, elicit this response. Alpha2 receptors, which normally couple to Gi, activate the RSAT response when coexpressed with a hybrid Gq protein that has a Gi receptor recognition domain, called Gq/i5.
(§3) NIH-3T3 cells are plated at a density of 2×10^6 cells in 15 cm dishes and maintained in Dulbecco's modified Eagle's medium supplemented with 10% calf serum. One day later, cells are cotransfected by calcium phosphate precipitation with mammalian expression plasmids encoding p-SV-β-galactosidase (5-10 μg), receptor (1-2 μg) and G protein (1-2 μg). 40 μg salmon sperm DNA may also be included in the transfection mixture. Fresh media is added on the following day and 1-2 days later, cells are harvested and frozen in 50 assay aliquots. Cells are thawed and […] added to 100 aliquots of various concentrations of drugs in triplicate in 96-well dishes. Incubations continue 72-96 hr at 37° C. After washing with phosphate-buffered saline, β-galactosidase enzyme activity is determined by adding 200 μl of the chromogenic substrate (consisting of 3.5 mM o-nitrophenyl-β-D-galactopyranoside and 0.5% nonidet P-40 in phosphate buffered saline), incubating overnight at 30° C. and measuring optical density at 420 nm. The absorbance is a measure of enzyme activity, which depends on cell number and reflects a receptor-mediated cell proliferation. The efficacy or intrinsic activity is calculated as a ratio of the maximal effect of the drug to the maximal effect of a standard full agonist for each receptor subtype. Brimonidine, also called UK14304, the chemical structure of which is shown below, is used as the standard agonist for the alpha2A, alpha2B and alpha2C receptors. The EC50 is the concentration at which the drug effect is half of its maximal effect.
(§4) EC50 values are nanomolar. ND stands for “not determinable” at concentrations less than 10 micromolar. IA stands for “intrinsic activity.”

For another assay, the target named is T2, alpha2A receptor (Homo sapiens, UniProt P08913).
T2 construct: expressed in transfected cells; host or cells: NIH-3T3 cells
T2 sequence (P08913 1-465): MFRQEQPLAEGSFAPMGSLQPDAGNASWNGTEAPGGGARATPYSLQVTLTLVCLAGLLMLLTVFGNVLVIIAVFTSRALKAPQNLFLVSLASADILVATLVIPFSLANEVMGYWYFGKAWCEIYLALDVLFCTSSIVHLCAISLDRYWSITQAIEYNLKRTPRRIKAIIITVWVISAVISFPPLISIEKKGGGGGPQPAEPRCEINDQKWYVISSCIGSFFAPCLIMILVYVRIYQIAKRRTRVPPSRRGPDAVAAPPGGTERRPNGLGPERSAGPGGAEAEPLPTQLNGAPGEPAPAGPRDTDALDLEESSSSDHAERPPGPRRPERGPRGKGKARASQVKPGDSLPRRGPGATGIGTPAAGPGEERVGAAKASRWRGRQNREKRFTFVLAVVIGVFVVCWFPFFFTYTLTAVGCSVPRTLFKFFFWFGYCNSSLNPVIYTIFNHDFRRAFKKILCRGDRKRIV
Kind of assay: Receptor Selection and Amplification Technology (RSAT) assay, alpha2A. To be noted: RSAT; for EC50: transfected NIH-3T3 cells, value outside brackets, read-out: Alpha 2A EC50 (potency); for Alpha 2A intrinsic activity (efficacy): ratio of maximal effect to that of standard full agonist brimonidine (UK14304), value in brackets. The protocol: as §1, §2, §3, §4

The next assay has as its target T3, alpha2B receptor (Homo sapiens, UniProt P18089).
T3 construct: expressed in transfected cells; host or cells: NIH-3T3 cells
T3 sequence (P18089 1-450): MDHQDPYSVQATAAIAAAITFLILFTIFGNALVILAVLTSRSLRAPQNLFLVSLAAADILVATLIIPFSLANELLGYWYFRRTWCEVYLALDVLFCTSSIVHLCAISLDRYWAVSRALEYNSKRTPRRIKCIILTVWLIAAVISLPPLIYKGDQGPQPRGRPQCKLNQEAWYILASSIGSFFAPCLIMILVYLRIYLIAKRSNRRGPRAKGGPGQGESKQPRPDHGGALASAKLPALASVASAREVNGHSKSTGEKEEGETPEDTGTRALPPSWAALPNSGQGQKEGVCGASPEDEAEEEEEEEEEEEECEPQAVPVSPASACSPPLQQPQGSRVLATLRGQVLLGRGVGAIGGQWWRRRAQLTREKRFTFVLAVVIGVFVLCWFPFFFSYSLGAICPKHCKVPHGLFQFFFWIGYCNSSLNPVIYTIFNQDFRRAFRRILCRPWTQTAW
Kind of assay: Receptor Selection and Amplification Technology (RSAT) assay, alpha2B. The following applies: RSAT; for EC50: transfected NIH-3T3 cells, value outside brackets, read-out: Alpha 2B EC50 (potency); for Alpha 2B intrinsic activity (efficacy): ratio of maximal effect to that of standard full agonist brimonidine (UK14304), value in brackets. The protocol:
as §1, §2, §3, §4

Turning to `Cc1cccc(C(c2ccccn2)c2c[nH]cn2)c1C` (stereo not drawn) [2-((2,3-dimethylphenyl)(1H-imidazol-4-yl)methyl)pyridine], on alpha2C receptor, the EC50 came to 356 nM and the “Alpha 2C intrinsic activity (efficacy)” value is on record as 0.64. At alpha2A receptor, the EC50 is 1930 nM and the “Alpha 2A intrinsic activity (efficacy)” value is recorded as 0.39. Further, at alpha2B receptor, the EC50 was 0.92 nM and the “Alpha 2B intrinsic activity (efficacy)” value was found to be 1.22.

Take `Cc1c(F)cccc1C(c1ccncc1)c1c[nH]cn1` (stereo not drawn) [4-((3-fluoro-2-methylphenyl)(1H-imidazol-5-yl)methyl)pyridine]: at alpha2C receptor, the EC50 was greater than 10000 nM and the “Alpha 2C intrinsic activity (efficacy)” value is on record as 0.27. Further, at alpha2A receptor, the EC50 is greater than 10000 nM and the “Alpha 2A intrinsic activity (efficacy)” value was 0.03. At alpha2B receptor, the EC50 came out at 72 nM and the “Alpha 2B intrinsic activity (efficacy)” value is 1.17.

For the molecule `Cc1ccccc1C(c1ccncc1)c1c[nH]cn1` (stereo not drawn) [4-((2-methylphenyl)(1H-imidazol-5-yl)methyl)pyridine], at alpha2C receptor, the EC50 turned out to be 265 nM and the “Alpha 2C intrinsic activity (efficacy)” value was found to be 1.08. Further, on alpha2A receptor, the EC50 is greater than 10000 nM and the “Alpha 2A intrinsic activity (efficacy)” value was determined as 0.06. Further, at alpha2B receptor, the EC50 stood at 63 nM and the “Alpha 2B intrinsic activity (efficacy)” value was found to be 0.82.

With `Fc1cccc(C(c2cccnc2)c2c[nH]cn2)c1Cl` (stereo not drawn), on alpha2C receptor, the EC50 stood at 88 nM and the “Alpha 2C intrinsic activity (efficacy)” value is 0.87. On alpha2A receptor, the EC50 came out at 3370 nM and the “Alpha 2A intrinsic activity (efficacy)” value is 0.32. Besides, at alpha2B receptor, the EC50 is 4.8 nM and the “Alpha 2B intrinsic activity (efficacy)” value is 0.98.
